Data: US10220033B2, “Substituted benzoxazepine for cancer therapy” (University of Cape Town, priority 2014, dated 2019)
Read-outs that look alike come from different tables or passages of the source.

Experiments:
[1] = MTT assay for cell viability, IC50 determination; format: cell-based; conditions: Homo sapiens, MCF-12A; MCF12A; 48 hours, MTT
Method in brief: (§1)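 Viability measured by MTT reduction: cells treated 48 h with varying compound doses, MTT added, crystals solubilised 4 h later, A595 read the following day.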

[2] = system: HeLa cervical cancer cell line; assay: MTT assay for cell viability, IC50 determination; format: cell-based; conditions: HeLa, 48 hours, MTT, read-out: IC50
Method in brief: as §1

[3] = system: p65 nuclear import (Kpnβ1 cargo protein); assay: Percentage of nuclear and cytoplasmic p65 (FIG. 4); format: cell-based
Cytochrome C release = assay: Mitochondrial and cytoplasmic protein extraction, Cytochrome C Western Blot; format: cell-based; conditions: varying concentrations, 24 hours (FIG. 27)
Procedure: Cells were grown in 10 cm plates and treated with varying concentrations of Compound A for 24 hours. Cells were lysed in subcellular fractionation buffer (250 mM sucrose, 20 mM HEPES, 10 mM KCl, 1.5 mM MgCl2, 1 mM EDTA, 1 mM EGTA, 1 mM DTT and 1× complete protease inhibitor cocktail (Roche)), passed through a 25G needle and incubated on ice for 20 minutes. The nuclear pellet was obtained after centrifugation at 720 g for 5 minutes. The supernantant was further centrifuged at 10,000 g and the resulting supernatant used as the cytoplasmic fraction. The pellet containing the mitochondrial fraction was washed in subcellular fractionation buffer and passed through a 25G needle. The mitochondrial fraction was pelleted at 10,000 g and resuspended in RIPA buffer. Western Blot analysis was performed using a mouse anti-Cytochrome C antibody (BD Pharmingen, San Diego, Calif.), and anti-β-tubulin (H235) (sc-9104, Santa Cruz) and anti-Pereroxiredoxin-3 (PRDX-3) (P1247, Sigma) antibodies were used as protein loading controls for cytoplasmic and mitochondrial fractions, respectively.

Solubility = format: physicochemical; conditions: in dimethylsulfoxide (DMSO)

IC50 [2]: 8.77 µM | IC50 ([2]; Homo sapiens, 48 h): 10.2 µM | solubility (Solubility): soluble
Compound: CN(C)CCCn1c(N)c(-c2nc3ccccc3[nH]2)c2nc3ccccc3nc21 [Compound A, 3-(1H-benzimidazol-2-yl)-1-(3-dimethylaminopropyl)pyrrolo[5,4-b]quinoxalin-2-amine]
IC50 [1]: 12.7 µM | nuclear import of Kpnβ1 cargo protein (percentage of nuclear p65 relative to cytoplasmic p65) [3]: inhibit the nuclear import of Kpnβ1 cargo protein | release of Cytochrome C from the mitochondria into the cytoplasm (Cytochrome C release): release of Cytochrome C from the mitochondria into the cytoplasm, in a dose-dependent manner
